Measured values taken from ChEMBL document CHEMBL5370565, “Inhibition of Cysteine Proteases via Thiol-Michael Addition Explains the Anti-SARS-CoV-2 and Bioactive Properties of Arteannuin B” (J Nat Prod, 2023).
Active and inactive are the calls of the source. The rule behind the calls is not given here.

Experiments:
Glioblastoma cell line = experiment: Cytotoxicity against glioblastoma (unknown origin) cells assessed as reduction in cell viability at 35 uM incubated for 24 hrs by eFluor 780 fixable viability dye based flow cytometric analysis; assay type: functional
Caspase-8 (Homo sapiens) = Caspase-8 (Homo sapiens) (UniProt Q14790); experiment: Inhibition of C-terminal 6his tagged human Caspase 8 activity expressed in Escherichia coli BL21 (DE3) cells at 50 uM preincubated for 30 mins by LC-MS analysis
Chain of Caspase-8 (Homo sapiens) (Q14790 217-374 limits assumed): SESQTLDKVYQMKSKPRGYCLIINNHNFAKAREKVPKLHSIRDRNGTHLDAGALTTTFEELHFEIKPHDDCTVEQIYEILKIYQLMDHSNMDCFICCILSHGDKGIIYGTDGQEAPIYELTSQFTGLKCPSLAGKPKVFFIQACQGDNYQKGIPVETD
Chain of Caspase-8 (Homo sapiens) (Q14790 385-479 limits assumed): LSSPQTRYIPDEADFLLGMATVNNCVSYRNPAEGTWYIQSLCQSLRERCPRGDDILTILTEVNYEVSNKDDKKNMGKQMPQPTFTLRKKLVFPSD

SARS-CoV-2 = experiment: Antiviral activity against SARS-CoV-2 GX_P2V infected in African green monkey Vero E6 cells assessed as reduction in viral yield pretreated with cells for 2 hrs followed by viral infection and measured after 72 hrs by qRT-PCR analysis; assay type: functional, organism-based; details: Severe acute respiratory syndrome coronavirus 2, GX_P2V, Vero C1008
[1] = test system: Severe acute respiratory syndrome coronavirus 2; experiment: Inhibition of C-terminal 6his-tagged/N-terminal strepII-tagged SARS-CoV-2 NSP5 expressed in Escherichia coli BL21 (DE3) cells using (4-Fluoro-F)LQS as substrate assessed as (4-fluoro-F)L production at 48 uM preincubated with compound for 60 mins followed by substrate addition and measured after 300 mins by LC-MS analysis relative to control; details: time 360.0 min

SMILES | Activity (Glioblastoma cell line) | inhibition (Caspase-8 (Homo sapiens)) | EC50 (SARS-CoV-2) [µM] | inhibition [1] [%]
C[C@@H]1CC[C@H]2[C@H](C)C(=O)O[C@]23[C@H]1CC[C@@]1(C)O[C@@H]31 | inactive |  |  | 
C=C1C(=O)O[C@@]23C1CC[C@@H](C)[C@@H]2CC[C@@]1(C)O[C@@H]31 (stereo not given in full) | Active | Active | 8.84 | 45
